According to patent US20220081412A1, “QUINOLINYL-PYRAZINE-CARBOXAMIDE COMPOUNDS AND USES THEREOF” (The Regents of the University of Michigan, priority 2018, published 2022):

Tested on: MIA PaCa-2 cells
Experiment: Bru-seq analysis for nascent RNA synthesis (log2FC of genes, GSEA gene sets)
Type: cell-based, human
Details: 4 h
[1] = PYEON_CANCER_HEAD_AND_NECK_VS_CERVICAL_UP, C2, downregulated
[2] = RIGGINS_TAMOXIFEN_RESISTANCE_DN, C2, downregulated
[3] = SCHLOSSER_MYC_TARGETS_AND_SERUM_RESPONSE_DN, C2, downregulated
[4] = SENGUPTA_NASOPHARYNGEAL_CARCINOMA_UP, C2, downregulated
[5] = SENGUPTA_NASOPHARYNGEAL_CARCINOMA_WITH_LMP1_UP, C2, downregulated
[6] = SHEN_SMARCA2_TARGETS_UP, C2, downregulated
[7] = TAKEDA_TARGETS_OF_NUP98_HOXA9_FUSION_3D_UP, C2, downregulated
[8] = TAKEDA_TARGETS_OF_NUP98_HOXA9_FUSION_6HR_UP, C2, downregulated
[9] = TCANNTGAY_SREBP1_01, TFBT, upregulated
[10] = TGANNYRGCA_TCF11MAFG_01, TFBT, upregulated
[11] = TTTNNANAGCYR_UNKNOWN, TFBT, upregulated
[12] = YANG_BREAST_CANCER_ESR1_LASER_DN, C2, downregulated
[13] = ZHANG_BREAST_CANCER_PROGENITORS_UP, C2, downregulated
[14] = ZHANG_TLX_TARGETS_36HR_DN, C2, downregulated
[15] = ZHANG_TLX_TARGETS_DN, C2, downregulated
[16] = ZHENG_BOUND_BY_FOXP3, C2, downregulated
[17] = top upregulated noncoding genes, MIA PaCa-2 cells
[18] = top upregulated protein-coding genes, MIA PaCa-2 cells

Cc1cc(NC(=O)c2cnc(N3CCNCC3)cn2)c2ncccc2c1 [J28, N-(6-methylquinolin-8-yl)-5-(piperazin-1-yl)pyrazine-2-carboxamide]
ES (OCT1Q5_01, TFBT, upregulated): 0.383 | NES (OCT1Q5_01, TFBT, upregulated): 1.568 | ES (PEA3_Q6, TFBT, upregulated): 0.389 | NES (PEA3_Q6, TFBT, upregulated): 1.645 | log2FC (PHLDB2, downregulated protein-coding gene): −0.93 | log2FC (PTX3, downregulated protein-coding gene): −1.04 | ES [1]: −0.405 | NES [1]: −1.998 | ES [2]: −0.420 | NES [2]: −1.996 | log2FC (RNVU1-6, downregulated noncoding gene): −1.29 | ES [3]: −0.485 | NES [3]: −1.909 | ES [4]: −0.477 | NES [4]: −2.454 | ES [5]: −0.503 | NES [5]: −2.612 | ES [6]: −0.402 | NES [6]: −2.248 | log2FC (SLCO1B3, downregulated protein-coding gene): −0.96 | log2FC (SPTY2D1-AS1, downregulated protein-coding gene): −0.93 | ES (SREBP1_01, TFBT, upregulated): 0.417 | NES (SREBP1_01, TFBT, upregulated): 1.757 | ES (SREBP1_Q6, TFBT, upregulated): 0.386 | NES (SREBP1_Q6, TFBT, upregulated): 1.611 | ES (SRF_01, TFBT, upregulated): 0.541 | NES (SRF_01, TFBT, upregulated): 1.708 | log2FC (SRRM1P2, downregulated noncoding gene): −0.97 | ES [7]: −0.469 | NES [7]: −1.940 | ES [8]: −0.667 | NES [8]: −2.252 | ES [9]: 0.399 | NES [9]: 1.843 | log2FC (TEX15, downregulated protein-coding gene): −0.95 | ES [10]: 0.359 | NES [10]: 1.552 | ES [11]: 0.502 | NES [11]: 1.859 | log2FC (TXNRD3NB, downregulated protein-coding gene): −0.86 | log2FC (WWTR1-IT1, downregulated noncoding gene): −1.14 | ES [12]: −0.521 | NES [12]: −1.924 | ES [13]: −0.342 | NES [13]: −1.914 | ES [14]: −0.518 | NES [14]: −2.618 | ES [15]: −0.457 | NES [15]: −2.032 | ES [16]: −0.362 | NES [16]: −1.929 | log2FC (ZNF37A, downregulated protein-coding gene): −0.93 | log2FC (ZNF816, downregulated protein-coding gene): −1.58 | log2FC AC027307.3 [17]: 1.20 | log2FC AC068473.5 [17]: 0.84 | log2FC AC090826.2 [17]: 0.90 | log2FC AC092279.1 [17]: 0.84 | log2FC AC106886.2 [17]: 1.10 | log2FC AC141586.1 [17]: 1.01 | log2FC AC239868.4 [17]: 0.91 | log2FC AL049543.1 [17]: 1.21 | log2FC AP001065.1 [17]: 0.95 | log2FC KRT18P31 [17]: 0.89 | log2FC PCBP2P1 [17]: 0.84 | log2FC RN7SL16P [17]: 1.19 | log2FC RPS16P5 [17]: 0.97 | log2FC SLC2A1-AS1 [17]: 1.22 | log2FC SNHG20 [17]: 1.06 | log2FC SNORA3B [17]: 0.88 | log2FC SNORA65 [17]: 1.28 | log2FC SNORA73B [17]: 0.91 | log2FC SNORA74D [17]: 1.76 | log2FC SNORD15A [17]: 0.86 | log2FC SNORD15B [17]: 0.90 | log2FC SNORD17 [17]: 1.17 | log2FC ST7-AS1 [17]: 0.95 | log2FC SYPL1P2 [17]: 0.85 | log2FC TDRKH-AS1 [17]: 0.90 | log2FC ABHD14B [18]: 1.28 | log2FC AC099811.2 [18]: 1.35 | log2FC APRT [18]: 1.39 | log2FC COMMD5 [18]: 1.31 | log2FC DBP [18]: 1.90 | log2FC DDX28 [18]: 1.46 | log2FC DHCR7 [18]: 1.44 | log2FC DOLK [18]: 1.70 | log2FC FASN [18]: 1.28 | log2FC H2AFX [18]: 1.36 | log2FC HIST1H1D [18]: 1.36 | log2FC HIST1H2BF [18]: 1.63 | log2FC HIST1H3B [18]: 1.82 | log2FC HIST1H3C [18]: 1.45 | log2FC HIST1H3I [18]: 1.28 | log2FC INSIG1 [18]: 1.65 | log2FC MVK [18]: 1.37 | log2FC ORMDL3 [18]: 1.39 | log2FC PCYT2 [18]: 2.03 | log2FC POP7 [18]: 1.30 | log2FC RNF26 [18]: 1.71 | log2FC SCD [18]: 1.67 | log2FC SDR39U1 [18]: 1.67
